Measurements published in patent publication US12636312B2, “Gold clusters (AuCs), composition and method for treatment of liver cirrhosis” (Wuhan Vast Conduct Science Foundation CO., LTD., priority 2020, dated 2026).

Tests used:
cirrhotic model mice [1] = experiment: Serum biochemical testing (ALT, AST, TBil, MAO, ALB) in CCl4-induced liver cirrhosis model mice, Embodiment 3; assay type: in vivo
Description: (§1) 120 SPF male C57BL/6N mice, 6-8 weeks old and 16-20 g body weight, were purchased from Beijing Huafukang Experimental Animal Technology Co., Ltd. (production license number: SOCK (Jing) 2019-0008). According to body weight, they were randomly divided into 12 groups (n=10): blank control group, model group, positive control group, A-01 low dose group, A-01 high dose group, A-02 low dose group, A-02 high dose group, B-01 low-dose group, B-01 high-dose group, B-02 low-dose group, B-02 high-dose group, and C high-dose group.
(§2) Except for the blank control group, liver cirrhosis model of mice in other groups was prepared by the method of carbon tetrachloride (CCl4)-induction treatment. The modeling protocol was as follows: (1) Each mouse was intraperitoneally injected with 10% CCl4 (diluted with olive oil) at 7 μL/g body weight, twice a week for a total of 8 weeks; mice of the blank control group were injected intraperitoneally with the same amount of olive oil solvent. (2) from the 6th week, two mice were selected and killed 48 hours after the last injection every week. The appearance of the liver was observed. After the appearance was in line with the characteristics of cirrhosis (the 8th week), the liver tissue was fixed with formalin. HE staining and Masson staining were used to evaluate the model of cirrhosis.
After the successful modeling, the mice in the positive control group were given intragastrically 25 mg/kg sorafenib; the mice in the low or high dose groups of A-01, A-02, B-01 and B-02 were given by intraperitoneal injection at 2.5 or 10 mg/kg respectively of the corresponding test material; the mice in the C high dose group were given by intraperitoneal injection at a dose of 40 mg/kg of C; and the mice in the blank control group and the model group were given intraperitoneally physiological saline at 10 mL/kg. The administration was once a day for 20 consecutive days.
After the administration was completed, blood was collected from mouse orbit, and sera were obtained for biochemical testing of albumin (ALbumin, ALB), total bilirubin (TBil), alanine Alanine aminotransferase (ALT), aspartate aminotransferase (AST) and monoamine oxidase (MAO) using Zhongsheng Beikong Kit and biochemical analyzer (Siemens). The detection method was performed in strict accordance with the kit instructions.

cirrhotic model mice [2] = experiment: Pathological examination of liver (HE staining, Masson staining) in CCl4-induced liver cirrhosis model mice, Embodiment 3; assay type: in vivo, C57BL/6N mice; conditions: 25 mg/kg intragastrically 20 days
Description: as §1
as §2, with “cirrhosis. […]” for “cirrhosis.”

[3] = 25 mg/kg intragastrically 20 days
[4] = 25 mg/kg intragastrically 20 days, listed as positive control
[5] = 25 mg/kg intragastrically 20 days, listed as positive control drug

CNC(=O)c1cc(Oc2ccc(NC(=O)Nc3ccc(Cl)c(C(F)(F)F)c3)cc2)ccn1 [sorafenib, Sorafenib]
serum ALT level versus model group (cirrhotic model mice [1]; [3]): significantly reduced
serum AST level versus model group (cirrhotic model mice [1]; [3]): significantly reduced
serum TBIL level versus model group (cirrhotic model mice [1]; [3]): significantly reduced
serum ALB level versus model group (cirrhotic model mice [1]; [4]): did not significantly affect
serum MAO activity versus model group (cirrhotic model mice [1]; [4]): did not decrease
serum ALB level versus model group (cirrhotic model mice [1]; [5]): no significant effect
serum MAO activity versus model group (cirrhotic model mice [1]; [5]): no effect
serum MAO activity (cirrhotic model mice [1]; 25 mg/kg intragastrically 20 days, model group 21.5±0.7): 21.3±2.1 U/L
serum AST activity (cirrhotic model mice [1]; 25 mg/kg intragastrically 20 days, model group 192.0±11.3): 165.5±11.6 U/L
serum ALT activity (cirrhotic model mice [1]; 25 mg/kg intragastrically once a day for 20 days, model group 188.5±4.9): 42.8±5.4 U/L
HE staining: liver damages versus model group (cirrhotic model mice [2]): significant reduction of liver damages
